What all share (type): in vivo
The test system of assay [1] is Tetranychus urticae. The assay is described as follows: Example 5: field test on roses (Freedom) against Tetranychus urticae. The note with it: population on leaves, 1 day after treatment. The method, then:
In plots measuring approximately 14 m^2, roses (growth stage 46) of the cultivar “Freedom” in double rows are treated in three replications against Tetranychus urticae. Application takes place using a back-mounted spray. In this example, the mixture of the active ingredients Oberon, Example (I), and abamectin, Example (VI), is tested against the commercial standards abamectin (018 EC) and Oberon (240 SC) at the stated application rates and in the stated mixing ratios. The water application rate is 1000 l/ha.
Evaluation is made 1 day after treatment, by scoring the destruction of the population on the leaves.

The subject of assay [2] is Tetranychus urticae. In words: Example 6: field test on aubergines (Suqi qie) against Tetranychus urticae, ready-prepared mixture 20:1. The note with it: for Destruction (% Abbott) 21 days (eggs) / Destruction (% Abbott) 21 days (males) / Destruction (% Abbott) 21 days (population): 21 days after treatment; for Destruction (% Abbott) 1 day: males on leaves, 1 day after treatment; for Destruction (% Abbott) 21 days (population): total population. As to the method: In plots measuring approximately 8 m^2, aubergines (growth stage 15) of the cultivar “Suqi qie” are treated in three replications against Tetranychus urticae. Application takes place using a back-mounted sprayer. […] The water application rate is 450 l/ha.
Evaluation is made 1 day after treatment, by scoring the destruction of the males on the leaves.
A further evaluation is made 21 days after treatment, by scoring the destruction of the eggs, the destruction of the males, and the total population on the leaves.

In assay [3] the test system is Tetranychus urticae. The assay is described as follows: Example 1: field test on aubergines against Tetranychus urticae. The note with it: for Destruction (% Abbott) 1 day: 1 day after treatment; for Destruction (% Abbott) 55 days: 55 days after treatment; for Destruction (% Abbott) 45 days: 45 days after treatment. As to the method:
In plots measuring approximately 14 m^2, aubergines (around 11 weeks after planting out) of the cultivar “Heilongchangqie” are treated in three replications against Tetranychus urticae. Application takes place using a sprayer. […] The water application rate is 450 l/ha.
Evaluation is made 1 day and 55 days after treatment, by scoring the destruction of the eggs on the leaves.
A further evaluation is made 45 and 55 days after treatment, by scoring the destruction of the nymphs on the leaves.

Assay [4] relates to whitefly (Bemisia tabaci). In words: Example 11: Bemisia tabaci - test on cabbage. Particulars: cabbage plants, spray. The method, then: Bemisia tabaci—Test on Cabbage
(§1) • Solvent: 7 parts by weight of dimethylformamide • Emulsifer: 2 parts by weight of alkylaryl polyglycol ether
(§2) An appropriate preparation of active ingredient is prepared by mixing 1 part by weight of active ingredient with the stated amounts of solvent and emulsifier and diluting the concentrate with emulsifier-containing water to the desired concentration.
Cabbage plants (Brassica oleracea) infested with whitefly (Bemisia tabaci) are treated by being sprayed with the preparation of active ingredient at the desired concentration.
(§3) After the desired time, the destruction is determined in %. 100% here means that all of the whitefly have been killed; 0% means that no whitefly have been killed. The destruction figures ascertained are calculated by the Colby formula.

For assay [5], the system named is larvae of the seven-spotted ladybird (Coccinella septempunctata). In words: Example 13: Coccinella septempunctata larvae - test on plums (beneficial species). Particulars: plum leaves, spray. The method, then: Coccinella septempunctata/Larvae—Test on Plums
An appropriate solution for application is prepared by diluting the respective formulation to the desired concentration.
Plum leaves colonized by larvae of the seven-spotted ladybird (Coccinella septempunctata) are treated by being sprayed with the application solution at the desired concentration.
After the desired time, the destruction is determined in %. 100% here means that all of the ladybird larvae have been killed; 0% means that no ladybird larvae have been killed. The destruction figures ascertained are calculated by the Colby formula.

Assay [6] relates to two-spotted spider mite (Tetranychus urticae). The assay is described as follows: Example 8: Tetranychus urticae - test on cotton. Particulars: cotton plants, spray. As to the method:
Tetranychus urticae—Test on Cotton
• Solvent: 7 parts by weight of dimethylformamide • Emulsifier: 2 parts by weight of alkylaryl polyglycol ether
as §2
Cotton plants (Gossypium hirsutum) infected with the two-spotted spider mite (Tetranychus urticae) are treated by being sprayed with the preparation of active ingredient in the desired concentration.
After the desired time, a determination is made of the destruction in %. 100% here means that all of the mites have been killed; 0% means that no mites have been killed. The destruction figures ascertained are calculated by the Colby formula.

Assay [7] concerns Hemitarsonemus latus. The assay is described as follows: Example 7: field test on bell peppers against Hemitarsonemus latus. The note with it: adults on leaves, 2 days after treatment. The method, then: In plots measuring approximately 6 m^2, bell peppers of the cultivar “California Wonder” (growth stage 75) are treated in three replications against Hemitarsonemus latus. Application takes place using a sprayer at 2.5 bar pressure. […] The water application rate is 300 l/ha.
Evaluation is made 2 days after treatment, by scoring the destruction of the adults on the leaves.

The subject of assay [8] is Tetranychus urticae. The assay is described as follows: Example 2: field test on roses (Blizard) against Tetranychus urticae. Particulars: adults on leaves, 3 days after treatment. As to the method:
In plots measuring approximately 6 m^2, roses of the cultivar “Blizard” with an age of approximately 3 years are treated in three replications against Tetranychus urticae. Application takes place using a back-mounted spray (3.5 bar). […] The water application rate is 1320 l/ha. Evaluation is made 3 days after treatment, by counting the adults on the leaves/square inch. Subsequently, the activity is calculated as a percentage by the method of Henderson and Tilton.

Assay [9] has as its system Tetranychus urticae. The assay is described as follows: Example 4: field test on cotton plants against Tetranychus urticae. Particulars: population on leaves, 13 days after treatment. The method, then: In plots measuring approximately 15 m^2, cotton plants of the cultivar “BRS Aroeira” with a height of approximately 80 cm are treated in three replications against Tetranychus urticae. Application takes place using a spray at 2.5 bar. […] The water application rate is 200 l/ha.
Evaluation is made 13 days after treatment, by scoring the destruction of the population on the leaves.

Assay [10] concerns Tetranychus urticae. In words: Example 3: field test on tomatoes against Tetranychus urticae. The note with it: adults on leaves, 3 days after treatment. As to the method: In plots measuring approximately 6 m^2, tomatoes of the cultivar “Leader” are treated in three replications against Tetranychus urticae. Application takes place using a back-mounted spray (4.5 bar). […] The water application rate is 1000 l/ha.
Evaluation is made 3 days after treatment, by scoring the destruction of the adults on the leaves.

Assay [11] has as its system Frankliniella occidentalis. In words: Example 9: field test on bell peppers against Frankliniella occidentalis. The note with it: for Destruction (% Abbott) 7 days: adults in the flowers, 7 days after the second treatment; for Destruction (% Abbott) 14 days: mixed population in the flowers, 14 days after the second treatment. The method, then: In plots measuring approximately 10 m^2, bell peppers of the cultivar “Italiano verde” are treated in three replications against Frankliniella occidentalis. Application is made using a back-mounted spray (10 bar). […] The water application rate is 750 l/ha. Two applications are carried out, at an interval of 7 days.
Evaluation is made 7 days after the second treatment, by scoring the destruction of the adults in the flowers.
Evaluation is made 14 days after the second treatment, by scoring the destruction of the mixed population in the flowers.

Assay [12] concerns whitefly (Bemisia tabaci). In words: Example 10: Bemisia tabaci - test on cotton. The note with it: cotton plants, spray. As to the method: Bemisia tabaci—Test on Cotton
as §1, §2
Cotton plants (Gossypium hirsutum) infested with whitefly (Bemisia tabaci) are treated by being sprayed with the preparation of active ingredient at the desired concentration.
as §3

[13] abbreviates: nymphs on leaves, 120 g a.i./ha.

With `Cc1cc(C)c(C2=C(OC(=O)CC(C)(C)C)C3(CCCC3)OC2=O)c(C)c1` [Oberon (I), Spiromesifen], in assay [1] (120 g a.i./ha), the “Activity (% Abbott) 1 day” value is 32.4 % Abbott. Also, in [2] (120 g a.i./ha), the “Destruction (% Abbott) 21 days (eggs)” value came out at 0 % Abbott, the “Destruction (% Abbott) 1 day” value is 0 % Abbott, the “Destruction (% Abbott) 21 days (males)” value is given as 5 % Abbott and the “Destruction (% Abbott) 21 days (population)” value stood at 1.9 % Abbott. For the same compound, in assay [3] (eggs on leaves, 120 g a.i./ha), the “Destruction (% Abbott) 1 day” value came out at 26.7 % Abbott and the “Destruction (% Abbott) 55 days” value is given as 0 % Abbott. Also, in assay [3] (setting [13]), the “Destruction (% Abbott) 45 days” value is reported as 14.8 % Abbott and the “Destruction (% Abbott) 55 days” value is 24.1 % Abbott. The “Destruction in % after 9d” value in assay [4] (150 g ai/ha) is listed as 55%. Also, the “Destruction in % after 3d” value in assay [5] (60 g ai/ha) came to 3%. In addition, the “Destruction in % after 3d” value in assay [5] (120 g ai/ha) is on record as 10%. In [6] (100 g ai/ha), the “Destruction in % after 3d” value is listed as 30%. Further, the “Destruction (% Abbott) 2 days” value in assay [7] (120 g a.i./ha) is 50 % Abbott. Moreover, the “Activity (% H. + T.) 3 days” value in [8] (105 g a.i./ha) amounted to 32.2 % H. + T. The “Activity (% H. + T.) 3 days” value in [8] (210 g a.i./ha) is listed as 40.7 % H. + T. Besides, the “Destruction (% Abbott) 13 days” value in assay [9] (120 g a.i./ha) turned out to be 58.5 % Abbott. Further, the “Destruction (% Abbott) 3 days” value in [10] (120 g a.i./ha) is reported as 25.0 % Abbott. For the same compound, in assay [11] (105 g a.i./ha), the “Destruction (% Abbott) 7 days” value worked out at 3.3 % Abbott and the “Destruction (% Abbott) 14 days” value is recorded as 0 % Abbott. In assay [11] (210 g a.i./ha), the “Destruction (% Abbott) 14 days” value turned out to be 0 % Abbott. The “Destruction in % after 7d” value in assay [12] (120 g ai/ha) is given as 70%.

As for abamectin [Abamectin (VI)], the “Activity (% Abbott) 1 day” value in assay [1] (6 g a.i./ha) came out at 27 % Abbott. Also, the “Destruction (% Abbott) 21 days (eggs)” value in [2] (10 g a.i./ha) is 0 % Abbott. Moreover, the “Destruction (% Abbott) 1 day” value is 33.3 % Abbott in [2] (10 g a.i./ha) and 19.8 % Abbott in [3] (eggs on leaves, 10 g a.i./ha). The “Destruction (% Abbott) 21 days (males)” value in [2] (10 g a.i./ha) was 45 % Abbott. For the same compound, the “Destruction (% Abbott) 21 days (population)” value in assay [2] (10 g a.i./ha) is 47.6 % Abbott. For the same compound, the “Destruction (% Abbott) 55 days” value is given as 0 % Abbott in assay [3] (eggs on leaves, 10 g a.i./ha) and 0 % Abbott in assay [3] (nymphs on leaves, 10 g a.i./ha). The “Destruction (% Abbott) 45 days” value in assay [3] (nymphs on leaves, 10 g a.i./ha) was 0 % Abbott. Moreover, the “Destruction in % after 9d” value in assay [4] (6 g ai/ha) and in assay [4] (15 g ai/ha) was 0% each time. The “Destruction in % after 3d” value is given as 63% in assay [5] (3 g ai/ha), 100% in assay [5] (6 g ai/ha) and 10% in assay [6] (4 g ai/ha). For the same compound, the “Destruction (% Abbott) 2 days” value in [7] (10 g a.i./ha) is recorded as 0 % Abbott. The “Activity (% H. + T.) 3 days” value in [8] (10.5 g a.i./ha) and in assay [8] (21 g a.i./ha) was 0 % H. + T throughout. Moreover, the “Destruction (% Abbott) 13 days” value in assay [9] (7.2 g a.i./ha) was determined as 16.5 % Abbott. For the same compound, in [10] (10 g a.i./ha), the “Destruction (% Abbott) 3 days” value was 45.8 % Abbott. The “Destruction (% Abbott) 7 days” value in assay [11] (10.5 g a.i./ha) amounted to 0 % Abbott. Besides, the entries for the “Destruction (% Abbott) 14 days” value in [11] (10.5 g a.i./ha) and in assay [11] (21 g a.i./ha) were 0 % Abbott and 2.0 % Abbott, respectively. The “Destruction in % after 7d” value in assay [12] (6 g ai/ha) is 0%.

The values above are taken from patent US8722072B2, “Acaricidal and/or insecticidal active ingredient combinations” (priority 2010, dated 2014).
